# Measured values reported in patent publication US4735953A, “Pharmaceutical preparation for learning stimulation and memory improvement” (priority 1986, dated 1988).
# What was measured:
# [1] = Allergenic activity tests
# Method: Allergenic activity tests were also carried out for the preparation according to the present invention.
# rabbits = experiment: Chronic toxicity, rabbits; format: in vivo, rabbit; details: hypodermal, 2 months
# Excerpt: (§1) The chronic toxicity of the preparation was studied on three species of animals (rats, dogs, rabbits). In chronic tests on the above-mentioned animals the effect of a long-time hypodermal administration of the preparation according to the present invention on the general state and mass of animals, hemogram, cardio-vascular system, breathing central nervous system, functional state of kidneys, liver, thyroid gland was studied. […] The doses of the preparation employed in the experiments surpassed the required dose for a human being (per kilogram of bodymass) by 5-10 times.
# [2] = Carcinogenic, mutagenic, teratogenic, embryotoxic effect
# dogs = experiment: Chronic toxicity, dogs; format: in vivo, dog; details: hypodermal, 6 months
# Excerpt: as §1
# rats = experiment: Chronic toxicity, rats; format: in vivo, rat; details: hypodermal, 3 months
# Excerpt: as §1
# mice = experiment: Acute toxicity, mice; format: in vivo, mouse; details: single intraperitoneal
# Method: The preparation according to the present invention was also tested for acute and chronic toxicity.
# [3] = tested on: rabbit's brain hemispheres; experiment: Amplitude of induced potential in brain hemispheres (acoustic irritation); format: in vivo; details: rabbits
# Method: (§2) In the third series of experiments the effect of the preparation according to the present invention on the functional brain asymmetry was studied. The experiments were carried out on rabbits with electrodes implanted in the brain. The electrodes under nembutal narcosis (40 mg/kg) were implanted strictly symmetrically into the bearing zone of the temporal cortex of the right and left hemispheres on its lateral surface, whereas the indifferent electrode was secured to the nasal bones of a rabbit's skull. The acoustic irritation was applied through earphones. As the acoustic irritation a sound click caused by a square-shaped pulse from an electronic stimulator with a frequency of 0.1-0.2 Hz was used; the click intensity was adjusted within the range of from 5 to 80 Db. The amplification of the taken-off biopotentials was effected on an electroencephalograph; the induced potentials were obtained by means of an analyzer. 100 experiments on 20 animals were thus conducted; the interval between experiments on one animal was 7 days. The amplitude and form of the induced potential were determined. The asymmetry factor (Kas) was calculated by the formula: [formula] Ar --amplitude of the induced potential of the […] hemisphere, μV;
# (§3) A1 --amplitude of the induced potential of the left hemisphere.
# (§4) The test preparations were administered hypodermally in the form of 0.5-1.5% aqueous solutions 20 minutes before the beginning of the measurements.
# [4] = tested on: cerebral cortex of rabbits; experiment: Asymmetry factor by induced potential in the hearing zone of the cerebral cortex; format: in vivo, rabbit
# Method: as §2, §3, §4
# [5] = tested on: learning ability of rats preliminarily sorted out for poor learning ability; experiment: Active avoidance learning in a shuttle chamber, rats sorted out for poor learning ability; format: in vivo, rat; details: poorly learning rats
# Excerpt: In these experiments rats are taught to avoid an electric shock by escaping into a next chamber communicating with the first chamber by means of a special opening--a door. An electric current is applied to the chamber door consisting of metal plates. A conditional irritator is a light signal together with a sound click. The learning series consisted of 50 combinations. The number of combinations necessary for the animal's learning to escape into another chamber in response to the conditional signal was determined. Five correct responses out of 6 where regarded as the proof of stability of the acquired knowledge and were denoted as a "learning criterion". After 7 days the educational procedure was repeated, and again the number of combinations necessary to acquire the "learning criterion" was determined. In the case of difference between the first and second readings the percentage of retention of the acquired knowledge was calculated.
# In this experiment the effect of the preparation according to the present invention and prior art preparations was separately evaluated for the purpose of comparison on well-learning and on specially selected poorly learning rats. […] To the poorly learning rats the animals were assigned which reached no "learning criterion" in the teaching series of 50 combinations, or, in other words, a stable knowledge of active avoidance was not worked out in them. […] The preparation according to the present invention and the prior art comparison preparations were administered before the first teaching series or thereafter.
# Also studied were the effects produced upon a single and repeated administration of the preparation according to the present invention for 14 days.
compound,measurement,setting,value
"Cl.Nc1c2c(nc3c1CCC3)CCCC2.O [preparation of the invention, 9-amino-2,3,5,6,7,8-hexahydro-1H-cyclopenta(b)quinoline monohydrate hydrochloride]",allergenic effect,[1],no allergenic effect
same,chronic toxicity,rabbits,no toxic effect
same,carcinogenic effect,[2],"neither provides a carcinogenic, mutagenic, teratogenic or embryotoxic effect"
same,embryotoxic effect,[2],"neither provides a carcinogenic, mutagenic, teratogenic or embryotoxic effect"
same,mutagenic effect,[2],"neither provides a carcinogenic, mutagenic, teratogenic or embryotoxic effect"
same,teratogenic effect,[2],"neither provides a carcinogenic, mutagenic, teratogenic or embryotoxic effect"
same,chronic toxicity,dogs,no toxic effect
same,chronic toxicity,rats,no toxic effect
same,LD50,mice,44 mg/kg
same,amplitude of induced potentials (in words),[3],increased greater in the left hemisphere
same,"Change of amplitude of induced potential, % of the control, left hemisphere",[3]; hypodermally 5 mg/kg,270%
same,"Change of amplitude of induced potential, % of the control, right hemisphere",[3]; hypodermally 5 mg/kg,200%
same,"Mean value of amplitude of induced potential, %",[3]; hypodermally 5 mg/kg,235%
same,asymmetry factor (in words),[4],the asymmetry factor is also increased
same,% of knowledge retention,[5]; hypodermally 5 mg/kg,64.3%
same,"Number of combinations till appearance of ""learning criterion"", I teaching",[5]; hypodermally 5 mg/kg,21 ± 2.7
same,"Number of combinations till appearance of ""learning criterion"", II-checking of retention of knowledge",[5]; hypodermally 5 mg/kg,7.5 ± 0.9
same,Number of untaught animals in the group,[5]; hypodermally 5 mg/kg,3/20
same,% of knowledge retention,[5]; hypodermally I mg/kg,57.5%
same,"Number of combinations till appearance of ""learning criterion"", I teaching",[5]; hypodermally I mg/kg,24 ± 2.5
same,"Number of combinations till appearance of ""learning criterion"", II-checking of retention of knowledge",[5]; hypodermally I mg/kg,10.2 ± 1.5
same,Number of untaught animals in the group,[5]; hypodermally I mg/kg,6/20
